Values of other authors in US12465608B2, “Osimertinib for use in the treatment of non-small cell lung cancer” (AstraZeneca AB, priority 2019, dated 2025).

Columns and labels:
[1] = tested on: patients with EGFR mutation-positive NSCLC
[2] = tested on: patients with advanced mutation-positive EGFR (Ex19del or L858R) NSCLC; details: for median progression free survival (PFS): first-line therapy, FLAURA
[3] = tested on: patients with advanced EGFR mutation-positive NSCLC who were never- or light-former smokers; details: erlotinib combined with carboplatin plus paclitaxel; subgroup of patients with EGFR mutations

| SMILES | PFS hazard ratio (HR) ([1]; dacomitinib vs gefitinib, 95% CI 0.47-0.74, p<0.0001) | median PFS ([1]; first line treatment, EGFR mutation-positive NSCLC) [months] | median progression free survival (PFS) [2] [months] | side effects, combination vs erlotinib monotherapy [3] | events of CNS progression, patients ([2]; irrespective of known or treated CNS metastases at trial entry) [%] | PFS hazard ratio (HR) ([2]; osimertinib vs erlotinib or gefitinib, 95% CI 0.37, 0.57, p<0.0001) | median CNS PFS ([2]; patients with CNS metastases on a baseline brain scan) | reduction in the risk of CNS progression ([2]; patients with CNS metastases on a baseline brain scan, vs standard EGFR-TKIs) [%] | CNS PFS HR ([2]; patients with CNS metastases on a baseline brain scan, vs standard EGFR-TKIs, 95% CI 0.26-0.86, p=0.014) |
| --- | --- | --- | --- | --- | --- | --- | --- | --- | --- |
| COc1cc2ncnc(Nc3ccc(F)c(Cl)c3)c2cc1NC(=O)/C=C/CN1CCCCC1 [dacomitinib, (2E)-N-{4-[(3-chloro-4-fluorophenyl)amino]-7-methoxyquinazolin-6-yl}-4-(piperidin-1-yl)but-2-enamide] | 0.59 | 14.7 | – | – | – | – | – | – | – |
| C#Cc1cccc(Nc2ncnc3cc(OCCOC)c(OCCOC)cc23)c1 [erlotinib] | – | – | 10.2 | more side effects | – | – | – | – | – |
| C=CC(=O)Nc1cc(Nc2nccc(-c3cn(C)c4ccccc34)n2)c(OC)cc1N(C)CCN(C)C [osimertinib, N-(2-{2-dimethylaminoethyl-methylamino}-4-methoxy-5-{[4-(1-methylindol-3-yl)pyrimidin-2-yl]amino}phenyl) prop-2-enamide] | – | – | 18.9 | – | 6 | 0.46 | not reached | 52 | 0.48 |
